Tests used:
Arabidopsis thaliana = assay: Oxidation stress resistance against methyl viologen (leaf chlorosis, chlorophyll content), Example 8; format: in vivo, Arabidopsis thaliana (Col-0); conditions: with 5 μM methyl viologen, 2 days
Description: (§1) A wild-type Arabidopsis thaliana strain (accession: Col-0) was used as an experimental material. Seeds were purchased from Inplanta Innovations Inc.
A Murashige and Skoog Plant Salt Mixture 2.2 g (Nacalai tesque) and sucrose 10 g (FUJIFILM Wako) were dissolved in 1 l of pure water, a pH was adjusted to 5.8, and the resultant was sterilized in an autoclave (121° C., 20 minutes).
Arabidopsis thaliana seeds were sterilized by incubation with the use of a Kitchen Haiter® (Kao Corporation) diluted to 2-fold with pure water for 3 minutes. After the seeds were washed with sterile water 3 times, the seeds soaked in sterile water were incubated at 4° C. in the dark for 1 day in order to germinate the seeds at the same time. […]
Leaf chlorosis is observed in plants upon oxidation stress exposure. Thus, an extent of chlorosis was evaluated by measuring the content of the green pigment chlorophyll in leaves. The chlorophyll content was quantified in accordance with the method of Yamaguchi et al. (Nature Commun., Jun. 9, 2021; 12 [1]: 3480). […] The absorbance of the extract was measured at 647 nm and 664 nm, respectively, to calculate the chlorophyll content. The chlorophyll content was calculated in accordance with the formula: 19.43×A647+8.05×A664. The calculated value was divided by the plant weight per well, so as to eliminate the influence of individual sizes.

HSFA2 = assay: Histone H4 acetylation level of HSFA2 by chromatin immunoprecipitation and quantitative PCR, Example 14; format: in vivo, Arabidopsis thaliana (Col-0); conditions: Arabidopsis thaliana; 0.4 mM in medium, 2 hours after application; read-out: histone H4 acetylation level of HSFA2, increase vs group not subjected to the treatment
Description: as §1
A liquid medium containing a ½ Murashige and Skoog Plant Salt Mixture (Nacalai) and 1 (w/v) % sucrose (FUJIFILM Wako) was used as a growth medium.
Arabidopsis thaliana seeds were sterilized with the use of a Kitchen Haiter® liquid (Kao Corporation) diluted to one-half concentration with distilled water for 3 minutes, washed 3 times with sterile distilled water, and then incubated at 4° C. overnight. The growth medium (100 ml) was prepared in a 300-ml flask, the incubated seeds were seeded therein, the flask was transferred to an incubator (TOMY), and shake culture was then initiated. The incubator was maintained at a temperature of 22° C. for a daily cycle of 16 hours light and 8 hours darkness, and the rotation speed of the shaker was set at 180 rpm.
A stock solution of N-acetylglutamic acid (Tokyo Chemical Industry Co., Ltd.) was added to Arabidopsis thaliana 7 days after seeding to the final concentration of 0 mM and 0.4 mM in the media, followed by incubation for 2 hours. Sample fixation following incubation was performed in accordance with Yamaguchi et al (Arabidopsis Book, Feb. 17, 2014; 12: e0170). […]

CC(=O)N[C@@H](CCC(=O)O)C(=O)O [N-acetylglutamic acid]
chlorophyll content of the MV-treated groups (Arabidopsis thaliana; 0, 0.01, 0.1, and 0.4 mM, fresh weight basis): increased as the N-acetylglutamic acid concentration was increased
leaf chlorosis in MV-treated group (Arabidopsis thaliana; 0.4 mM): substantially no leaf chlorosis was observed
fold induction at 400 µM (HSFA2): 2
